Here are results for 1 compound from patent US12410323B2, “Potent antifouling agents albofungins target multiple fouling organisms” (The Hong Kong University of Science and Technology, priority 2021, dated 2025).

In brackets after ≈: the same amount, converted by molar mass.

Data set [1] has as its system Enterobacter cloacae NRRL-B-425. Nature of the data set: Biofilm inhibition assay (MTT), pathogenic bacteria. It counts as cell-based. The conditions noted are these: lowest concentration inhibiting 90% of biofilm formation. As to the method:
(§1) The ability of the bacteria to form static biofilms was tested. Marine bacteria were cultured overnight in marine broth at 22° C. with 220 rpm agitation (Pseudomonas pachastrellae MCCC 1A01390, Sulfitobacter pontiacus MCCC 1A04899 and Psychrobacter nivimaris MCCC 1A 11723) and at 30° C. (Staphylococcus aureus B04, Staphylococcus sp. Z01 and Micrococcus sp. Z02) and then diluted to 10^7 CFU mL^−1 in marine broth supplemented with 1% of glucose; pathogenic bacteria was cultured overnight in LB broth with 1% glucose with 220 rpm at 37° C. Afterwards, 200 μL of the diluted solution were added to each well of a 96-well plate (Corning Inc., New York, USA) and was then incubated at 22° C. or 30° C. for 24 h. The culture medium, planktonic cells and loosely adhered bacteria were removed by dual washing with a phosphate-buffered saline (PBS) buffer, and the firmly attached bacteria were incubated with 20 μL of MTT (5 mg mL^−1) at 37° C. for 3 h. The supernatant was discarded, and formazan was dissolved in 150 μL of DMSO. Absorbance was measured using the Multiskan™ FC microplate photometer (Thermo Fisher Scientific, Waltham, USA) under 570 nm, and MRSA ATCC 43300 was used as a positive control. All the experiments were performed in triplicate.
(§2) The antibacterial activities of albofungins were tested following specific protocols (She et al., 2020). Marine broth was used as the test medium for the marine bacteria, and the MHB broth was used as the test medium for the pathogenic bacteria. The plate was kept at 22° C. or 30° C. overnight, and the minimum inhibitory concentration (MIC) is the lowest concentration that the drug prevents the visible growth of bacteria. The bacteria which have successfully formed biofilms were further used for antibiofilm formation assays. Different concentrations of albofungin compounds were added to each well. Biofilm formation was assessed through the MTT assay as previously described. […] Data were analyzed using one-way ANOVA to detect significant differences and standard deviation (SD) was calculated using GraphPad Prism 9. All the assays were performed in triplicate.

Data set [2] has as its system Acinetobacter baumannii B-65371. The description is as above. The following applies: lowest concentration inhibiting 90% of biofilm formation. Type of data set: cell-based. How it is done:
as §1, §2

Data set [3] has as its system Escherichia coli k12. Described as above. It counts as cell-based. The following applies: lowest concentration inhibiting 90% of biofilm formation. As to the method: as §1, §2
A short description of data set [4]: Anti-larval settlement bioassay, bryozoan. It counts as in vivo, Bugula neritina. The conditions noted are these: Bugula neritina (bryozoan), larvae, in vivo; larval mortality, 3 h. How it is done: (§3) A. amphitrite adults were collected from Pak Sha Wan Pier, Hong Kong (22° 38′N, 114° 28′E) and after keeping in the dark for 24 h, a light source was used to stimulate the larval release. Within 1 h, the larvae were collected and cultured in 0.22 μm filtered seawater with a daily diet of Chaetoceros gracilis Schutt at 1×10^6 cells mL^−1 until their growth into cyprids, which were used for the anti-larval settlement bioassay. The bryozoan B. neritina adults were collected from a fish farm in Pak Shek Kok, Hong Kong (22° 43′N, 114° 20′E) and kept in flow-through seawater for no more than 7 days before use. The larvae were released within 30 minutes before the bioassay as described (Xu et al., 2010). The bioassay was conducted in a 24-well polystyrene tissue culture plate with 15-20 larvae in each well. 0.1% of DMSO in filtered seawater (FSW), and 0.625, 1.25, 2.5, 5, 10, 20, and 40 μg mL^−1 albofungin concentrations were tested in triplicate. In each well, 1 mL of FSW containing 15-20 larvae and 1 mL of albofungin solution of different concentrations. The plate was kept for 48 h at 25° C. (bryozoan B. neritina larvae were kept for 3 h). The wells with 0.1% of DMSO in FSW served as a negative control, and butenolide was used as a positive control. The number of attached, swimming, and dead larvae were counted under an Olympus optical microscope (Olympus Corporation, Tokyo, Japan). The settlement rate was calculated as the ratio of settled larvae to the total number of larvae in each well, and the death rate was calculated as the ratio of dead or missing larvae to the total number of larvae in each well. Half maximal effective concentration (EC50) and half lethal concentration (LC50) were determined for each compound, and the ratio of LC50/EC50 was used to evaluate the toxicity of the antifoulant. Experiments were performed in triplicate. Data were analyzed by one-way ANOVA to detect significant differences in the larval settlement, and SD was calculated by GraphPad Prism 9.

Data set [5] has as its system bryozoan Bugula neritina larvae. Nature of the data set: Anti-larval settlement bioassay, bryozoan. Type of data set: in vivo. How it is done:
as §3

For data set [6], the system named is barnacle Amphibalanus amphitrite larvae. Nature of the data set: Anti-larval settlement bioassay, barnacle. It counts as in vivo. How it is done:
as §3

The nature of data set [7]: Anti-larval settlement bioassay, barnacle. It counts as in vivo, Amphibalanus amphitrite. The conditions noted are these: Amphibalanus amphitrite (barnacle), cyprid larvae, in vivo; larval mortality, 48 h at 25° C. How it is done:
as §3

[8] abbreviates: ratio used to evaluate toxicity of the antifoulant.

One may read the LC50 as the concentration that kills 50% of the test population. Low values mean a more lethal substance, high ones a less lethal substance. In general, EC50 refers to the midpoint of the concentration-response curve. On to `CO[C@@H]1CC[C@H](O)c2c1oc1c3c4c(c(O)c1c2=O)-c1c(cc2cc(C)n(N)c(=O)c2c1O)C[C@H]4OCO3` [Albofungin (1), albofungin], for which the MBIC90 lay within 1.25 to 2.5 µg/mL in data set [1], 0.06 to 0.13 µg/mL in data set [2] and 0.63 to 1.25 µg/mL in data set [3]. The LC50 at 3 h in data set [4] was more than 100 µg/mL. The larval settlement in data set [5] (2.5 μg mL^−1, 3 h) is reported as 44% (±9.0%). The EC50 in data set [5] (Bugula neritina, larval settlement, 3 h) was determined as 1.9 µg/mL (≈ 3.65 µM); in data set [6] (Amphibalanus amphitrite, 48 h), 1.6 µg/mL (≈ 3.07 µM). Moreover, in data set [5] (highest concentration tested), the lethal effects entry was “no lethal effects”. For the same compound, the LC50/EC50 in data set [5] (setting [8]) is recorded as 52.6; in data set [6] (setting [8]) it was 62.5. The larval settlement rate in data set [6] (2.5 μg mL^−1, 48 h) is given as 33% (±5.3%). Moreover, in data set [6] (according to the EC50 value), the “antifouling activity against larval settlement compared with butenolide” value is “equivalent antifouling activity”. In addition, the “settlement rate compared with control group (0.1% DMSO in FSW)” value in data set [6] (after 48 h of incubation) is “significantly lower”. In data set [7], the LC50 at 48 h is more than 100 µg/mL.
